Tests used:
Assay type in all cases: cell-based, human
OVCAR4 cells = assay: Drug growth inhibition in cells depleted of dark kinases by siRNA (Cell Titer Glo); settings: increasing doses of drug
Method: OVCAR4 cells were transfected with control nontargeting or dark kinase siRNAs and treated with escalating doses of appropriate drugs.
To explore if blocking dark kinases AAK1, STK38 or MRCKA activity in combination with current therapies improves drug efficacy, OVCAR4 cells depleted of AAK1, STK38 or MRCKA were treated with increasing doses of carboplatin, olaparib, JQ1, or a variety of kinase inhibitors in clinical trials for HGSOC.
siRNA transfections were performed using 25 nM siRNA duplex and the reverse transfection protocol. 3000-5000 cells per well were added to 96 well plates with media containing the siRNA and transfection reagent (Lipofectamine RNAiMax) according to the manufacturer's instructions. In experiments where inhibitors were used, the inhibitor was added at the time of transfection. Cells were allowed to grow for 72-120 hours post-transfection prior to CellTiter Glo (Promega) analysis. Two-to-three independent experiments were performed with each cell line and siRNA. Students t tests were performed for statistical analyses and p values ≤0.05 were considered significant. For western blot studies, the same procedure was performed with volumes and cell numbers proportionally scaled to a 60 mm or 10 cm dish, and cells were collected 24-72 hours post-transfection. siRNA product numbers and manufacturers are listed in Table 5.

COV362 = assay: Short-term growth assay (CellTiter-Glo cell viability), kinase inhibitors
Method: (§1) Cell viability was determined by Cell Titer Glo analysis.
COV362 cells were treated with increasing concentrations of A-674563 and cell viability assessed by Cell Titer Glo according to manufacturer's instructions. Data represent the mean of six replicates.
(§2) To explore the therapeutic potential of the HGSOC kinome signature, a detailed molecular analysis of protein levels/activity, growth and survival functions was carried out in a panel of recently validated HGSOC cell lines (Coscia et al., Nat. Commun., 2016, 7, 12645) that harbor commonly encountered HGSOC mutations and genetic rearrangements (see, FIG. 5A).
(§3) For short-term growth assays, 3000-5000 cells were plated per well in 96-well plates and allowed to adhere and equilibrate overnight. Drug was added the following morning and after 120 hours of drug treatment, cell viability was assessed using the CellTiter-Glo Luminescent cell viability assay according to manufacturer (Promega). Students t tests were performed for statistical analyses and p values ≤0.05 were considered significant. For colony formation assays, cells were plated in 24-well dishes (3000-5000 cells per well) and incubated overnight before continuous drug treatment for 14 days, with drug and media replaced twice weekly. At the end of treatment, cells were rinsed with PBS and fixed with chilled methanol for 10 minutes at −20° C. Methanol was removed by aspiration, and cells were stained with 0.5% crystal violet in 20% methanol for 20 minutes at room temperature, washed with distilled water, and scanned.

Kuramochi = assay: as above
Method: as §1, §2, §3

OVCAR4 = assay: as above
Method: as §1, §2, §3

OVSAHO = assay: as above
Method: as §1, §2, §3

SNU-119 = assay: as above
Method: as §1, §2, §3

Structure (SMILES): CS(=O)(=O)N1CCN(Cc2cc3nc(-c4cccc5[nH]ncc45)nc(N4CCOCC4)c3s2)CC1 [GDC-0941]
- growth inhibition by drug combined with knockdown of STK38 (OVCAR4 cells): improved growth inhibition

Structure (SMILES): NC(=O)Nc1sc(-c2ccc(F)cc2)cc1C(N)=O [TPCA-1]
- Kinase inhibition profile of HGSOC cells (growth inhibition, Cell Titer Glo) (COV362; drug 1.2 uM): 1.094
- Kinase inhibition profile of HGSOC cells (growth inhibition, Cell Titer Glo) (Kuramochi; drug 1.2 uM): 0.988
- Kinase inhibition profile of HGSOC cells (growth inhibition, Cell Titer Glo) (OVCAR4; drug 1.2 uM): 0.8768
- Kinase inhibition profile of HGSOC cells (growth inhibition, Cell Titer Glo) (OVSAHO; drug 1.2 uM): 0.9827
- Kinase inhibition profile of HGSOC cells (growth inhibition, Cell Titer Glo) (SNU-119; drug 1.2 uM): 0.9375

Structure (SMILES): CC(=O)c1c(C)c2cnc(Nc3ccc(N4CCNCC4)cn3)nc2n(C2CCCC2)c1=O [Palbociclib]
- Kinase inhibition profile of HGSOC cells (growth inhibition, Cell Titer Glo) (COV362; drug 5 uM): 0.92
- Kinase inhibition profile of HGSOC cells (growth inhibition, Cell Titer Glo) (Kuramochi; drug 5 uM): 0.09321
- Kinase inhibition profile of HGSOC cells (growth inhibition, Cell Titer Glo) (OVCAR4; drug 5 uM): 0.7952
- Kinase inhibition profile of HGSOC cells (growth inhibition, Cell Titer Glo) (OVSAHO; drug 5 uM): 0.6956
- Kinase inhibition profile of HGSOC cells (growth inhibition, Cell Titer Glo) (SNU-119; drug 5 uM): 0.5867

Structure (SMILES): CNCc1ccc(-c2cc(-c3nc(-c4ccc(S(=O)(=O)C(C)C)cc4)cnc3N)on2)cc1 [VX-90]
- Kinase inhibition profile of HGSOC cells (growth inhibition, Cell Titer Glo) (COV362; drug 0.625 uM): 0.3346
- Kinase inhibition profile of HGSOC cells (growth inhibition, Cell Titer Glo) (Kuramochi; drug 0.625 uM): 0.6083
- Kinase inhibition profile of HGSOC cells (growth inhibition, Cell Titer Glo) (OVCAR4; drug 0.625 uM): 0.2646
- Kinase inhibition profile of HGSOC cells (growth inhibition, Cell Titer Glo) (OVSAHO; drug 0.625 uM): 0.5885
- Kinase inhibition profile of HGSOC cells (growth inhibition, Cell Titer Glo) (SNU-119; drug 0.625 uM): 0.51

Structure (SMILES): COc1cc2c(Oc3ccc4[nH]c(C)cc4c3F)ncnc2cc1OCCCN1CCCC1 [Cederinib]
- Kinase inhibition profile of HGSOC cells (growth inhibition, Cell Titer Glo) (COV362; drug 1.2 uM): 0.9246
- Kinase inhibition profile of HGSOC cells (growth inhibition, Cell Titer Glo) (Kuramochi; drug 1.2 uM): 0.9466
- Kinase inhibition profile of HGSOC cells (growth inhibition, Cell Titer Glo) (OVCAR4; drug 1.2 uM): 1.089
- Kinase inhibition profile of HGSOC cells (growth inhibition, Cell Titer Glo) (OVSAHO; drug 1.2 uM): 1.089
- Kinase inhibition profile of HGSOC cells (growth inhibition, Cell Titer Glo) (SNU-119; drug 1.2 uM): 0.6258

Structure (SMILES): CN(C)C/C=C/C(=O)Nc1ccc(C(=O)Nc2cccc(Nc3ncc(Cl)c(-c4c[nH]c5ccccc45)n3)c2)cc1 [THZ1]
- Kinase inhibition profile of HGSOC cells (growth inhibition, Cell Titer Glo) (COV362; drug 0.156 uM): 1.026
- Kinase inhibition profile of HGSOC cells (growth inhibition, Cell Titer Glo) (Kuramochi; drug 0.156 uM): 0.07069
- Kinase inhibition profile of HGSOC cells (growth inhibition, Cell Titer Glo) (OVCAR4; drug 0.156 uM): 0
- Kinase inhibition profile of HGSOC cells (growth inhibition, Cell Titer Glo) (OVSAHO; drug 0.156 uM): 0
- Kinase inhibition profile of HGSOC cells (growth inhibition, Cell Titer Glo) (SNU-119; drug 0.156 uM): 0
- growth inhibition by drug combined with knockdown of STK38 (OVCAR4 cells): improved growth inhibition
- growth inhibition by drug with MRCKA knockdown relative to non-targeting control siRNA (OVCAR4 cells): enhanced growth inhibition

Structure (SMILES): CNc1ncc2cc(-c3cc(NC(=O)NCCC(C)(C)C)c(F)cc3C)c(C)nc2n1 [LY300]
- Kinase inhibition profile of HGSOC cells (growth inhibition, Cell Titer Glo) (COV362; drug 1.2 uM): 0.2612
- Kinase inhibition profile of HGSOC cells (growth inhibition, Cell Titer Glo) (Kuramochi; drug 1.2 uM): 0.09151
- Kinase inhibition profile of HGSOC cells (growth inhibition, Cell Titer Glo) (OVCAR4; drug 1.2 uM): 0.6062
- Kinase inhibition profile of HGSOC cells (growth inhibition, Cell Titer Glo) (OVSAHO; drug 1.2 uM): 0.166
- Kinase inhibition profile of HGSOC cells (growth inhibition, Cell Titer Glo) (SNU-119; drug 1.2 uM): 0.6599

Structure (SMILES): Cc1sc2c(c1C)C(c1ccc(Cl)cc1)=N[C@@H](CC(=O)OC(C)(C)C)c1nnc(C)n1-2 [JQ1]
- growth inhibition by drug combined with depletion of AAK1 (OVCAR4 cells): enhanced growth inhibition
- growth inhibition by drug with MRCKA knockdown relative to non-targeting control siRNA (OVCAR4 cells): enhanced growth inhibition

Structure (SMILES): Cc1cnc(Nc2ccc(F)cc2Cl)nc1-c1c[nH]c(C(=O)N[C@H](CO)c2cccc(Cl)c2)c1 [Vx-11e]
- Kinase inhibition profile of HGSOC cells (growth inhibition, Cell Titer Glo) (COV362; drug 0.625 uM): 1.014
- Kinase inhibition profile of HGSOC cells (growth inhibition, Cell Titer Glo) (Kuramochi; drug 0.625 uM): 0.3596
- Kinase inhibition profile of HGSOC cells (growth inhibition, Cell Titer Glo) (OVCAR4; drug 0.625 uM): 0.9623
- Kinase inhibition profile of HGSOC cells (growth inhibition, Cell Titer Glo) (OVSAHO; drug 0.625 uM): 0.5488
- Kinase inhibition profile of HGSOC cells (growth inhibition, Cell Titer Glo) (SNU-119; drug 0.625 uM): 0.3359

Structure (SMILES): CCS(=O)(=O)N1CCN(c2ccc(Nc3ncc(C(N)=O)c(NC4CC4)n3)cc2)CC1 [Cerdulatinib]
- Kinase inhibition profile of HGSOC cells (growth inhibition, Cell Titer Glo) (COV362; drug 2.5 uM): −0.008256
- Kinase inhibition profile of HGSOC cells (growth inhibition, Cell Titer Glo) (Kuramochi; drug 2.5 uM): 1
- Kinase inhibition profile of HGSOC cells (growth inhibition, Cell Titer Glo) (OVCAR4; drug 2.5 uM): 0.5051
- Kinase inhibition profile of HGSOC cells (growth inhibition, Cell Titer Glo) (OVSAHO; drug 2.5 uM): 1
- Kinase inhibition profile of HGSOC cells (growth inhibition, Cell Titer Glo) (SNU-119; drug 2.5 uM): 0.8395
